Where no end group is shown, it is not given here.
Legend:
[1] = system: release of IFN-γ upon T cell activation; assay: Fluorospot assay, IFN-γ release (DK1-TCL01, US1-TCL01); assay type: cell-based, human; conditions: head prints TCL-02 DK1; 17 TCL-01 DK1 lines
Summary of the method: (§1)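 Grass-allergic donors' CD8-depleted PBMCs were expanded 14 days with natural grass allergens plus IL-2 to give TCL01 lines. These were incubated 20 h at 37° C with single peptides or peptide mixes at 2 μg/ml, and spot-forming cells were counted. Hit: SI≥2, p≤0.05, Poisson ≤0.05, ≥20 SFC/10^6 cells.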

[2] = system: allergen specific T cells; assay: T cell proliferation assay (72 h) on donor derived T cell lines (TCL02/TCL03); assay type: cell-based, human; conditions: for Proliferation % donor coverage (TCL-02 DK1): T cell lines TCL-02 DK1, 30 donors, hit criteria SI>=2, CPM>=1000; for Proliferation strength (TCL-02 DK1): T cell lines TCL-02 DK1, strength of response (average relative magnitude)
Summary of the method: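 CD8-depleted PBMCs from grass-allergic donors stimulated with natural grass allergen mix (nPhl p 1 0.5 μg/ml) to raise T cell lines; restimulated with irradiated APCs, allergens or PHA-P (0.5 μg/ml) plus rIL-2. Proliferation to overlapping 20-mer and selected 15-mer grass peptides tested with TCL02 (day 24) or TCL03 (day 34).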

[3] = system: release of IL-5 upon T cell activation; assay: Fluorospot assay, IL-5 release (DK1-TCL01, US1-TCL01); assay type: cell-based, human; conditions: head prints TCL-02 DK1; text: 25 TCL-01 DK1 lines
Summary of the method: as §1

[4] = biological target: 25 HLA Class II alleles (purified class II MHC molecules); assay: competitive radiolabelled-peptide binding to purified HLA class II (25 alleles, binder if IC50 <300 nM); worldwide phenotypic coverage of the alleles found to bind

Row | Molecule | IFN-gamma % donor coverage (TCL-02 DK1) [1] | Proliferation % donor coverage (TCL-02 DK1) [2] | Proliferation strength (TCL-02 DK1) [2] | IL-5-Fluorospotr % donor coverage (TCL-02 DK1) [3] | Measured binding coverage 25 alleles [4]
1 | RNVFDEVIPTAFKIGKTYTP-OH [compound 44] | 0.00% | 20.00% | 1.40 | 0.00% | 
2 | SKYPSGTKITFHIEKGSNDH-OH [compound 103] | 4.00% | 36.67% | 6.50 | 8.00% | 
3 | SMGDDHFWAVRGGGGESFGI-OH [compound 49] | 12.00% | 40.00% | 5.60 | 20.00% | 
4 | TALKKAITAMSEAQKAAKPA-OH [compound 85] | 0.00% | 20.00% | 2.80 | 4.00% | 
5 | TATYGSKWLEARATFYGSNP-OH [compound 90] | 4.00% | 26.67% | 3.50 | 12.00% | 
6 | TDDNEEPIAPYHFDLSGHAF-OH [compound 4] | 4.00% | 40.00% | 6.40 | 28.00% | 
7 | TKGKVDPTDYFRNEQSIPPL-OH [compound 60] | 0.00% | 13.33% | 2.60 | 0.00% | 
8 | TKKGNVWEVKSSKPLVGPFN-OH [compound 38] | 4.00% | 50.00% | 6.60 | 24.00% | 
9 | TPDKLTGPFTVRYTTEGGTK-OH [compound 26] | 4.00% | 13.33% | 2.00 | 24.00% | 
10 | TPFPHRKGVLFNIQYVNYWF-OH [compound 50] | 8.00% | 43.33% | 6.70 | 28.00% | 
11 | TSAVGAATGAATAATGGYKV-OH [compound 88] | 0.00% | 0.00% | 0.00 | 0.00% | 
12 | TSKLDAAYKLAYKTAEGATP-OH [compound 65] | 4.00% | 30.00% | 5.70 | 4.00% | 
13 | VFDDVVPEKYTIGATYAPEE-OH [compound 35] | 0.00% | 13.33% | 0.70 | 0.00% | 
14 | VKYEGDTMAEVELREHGSDE-OH [compound 32] | 0.00% | 6.67% | 0.20 | 0.00% | 
15 | VPKVTFTVEKGSNEKHLAVL-OH [compound 30] | 0.00% | 3.33% | 0.40 | 0.00% | 
16 | VRYTTEGGTKTEAEDVIPEG-OH [compound 12] | 8.00% | 23.33% | 7.00 | 8.00% | 
17 | VVAVDIKEKGKDKWIELKES-OH [compound 25] | 8.00% | 20.00% | 1.10 | 4.00% | 
18 | WGAIWRIDTPDKLTGPFTVR-OH [compound 11] | 8.00% | 46.67% | 4.80 | 24.00% | 
19 | WLDAKSTWYGKPTGAGPKDN-OH [compound 1] | 4.00% | 26.67% | 4.70 | 24.00% | 

Row | Molecule | IFN-gamma % donor coverage (TCL-02 DK1) [1] | Proliferation % donor coverage (TCL-02 DK1) [2] | Proliferation strength (TCL-02 DK1) [2] | IL-5-Fluorospotr % donor coverage (TCL-02 DK1) [3] | Measured binding coverage 25 alleles [4]
20 | YASGKVWGQKYFKGNFERLA-OH [compound 58] | 0.00% | 20.00% | 2.40 | 4.00% | 
21 | YFKGNFERLAITKGKVDPTD-OH [compound 59] | 0.00% | 30.00% | 3.20 | 0.00% | 
22 | YHFDLSGHAFGAMAKKGDEQ-OH [compound 5] | 15.00% | 46.67% | 7.80 | 24.00% | 
23 | YIITPTNVSHIQSAVVSGRR-OH [compound 46] | 0.00% | 27.00% | 1.00 | 0.00% | 
24 | YLALLVKYAAGDGNIVAVDI-OH [compound 105] | 4.00% | 16.67% | 1.90 | 12.00% | 
25 | KSSKPLVGPFNFRFMSKGGM [peptide 220 (Phl p 3, 56)] |  |  |  |  | 96%
26 | YIITPTNVSHIQSAVVSGRR [peptide 223 (Phl p 4, 55)] |  |  |  |  | 99%
27 | HGSEEWEPLTKKGNVWEVKS [peptide 218 (Phl p 3, 38)] |  |  |  |  | 39%
28 | TKKGNVWEVKSSKPLVGPFN [peptide 219 (Phl p 3, 47)] |  |  |  |  | 91%
29 | WGAIWRIDTPDKLTGPFTVR [peptide 211 (Phl p 1, 193)] |  |  |  |  | 90%
30 | KDKWIELKESWGAIWRIDTP [peptide 210 (Phl p 1, 183)] |  |  |  |  | 92%
31 | TEAEDVIPEGWKADTSYESK [peptide 213 (Phl p 1, 221)] |  |  |  |  | 58%
32 | VRYTTEGGTKTEAEDVIPEG [peptide 212 (Phl p 1, 211)] |  |  |  |  | 40%
33 | WLDAKSTWYGKPTGAGPKDN [peptide 201 (Phl p 1, 18)] |  |  |  |  | 47%
34 | KEDFLGSLVKEIPPRLLYAK [peptide 222 (Phl p 4, 8)] |  |  |  |  | 100%
35 | EPLQGPFNFRFLTEKGMKNV [peptide 216 (Phl p 2, 58)] |  |  |  |  | 92%
36 | GSDPKKLVLNIKYTRPGDSL [peptide 217 (Phl p 3, 11)] |  |  |  |  | 98%
37 | GRGSGSSFEIKSTKPEASSG [peptide 202 (Phl p 1, 66)] |  |  |  |  | 84%
38 | EWVAMTKGEGGVWTFDSEEP [peptide 214 (Phl p 2, 40)] |  |  |  |  | 81%
